Results on one molecule are retold here after US20080132544A1, “Peroxisome Proliferator-Activated Receptor Ligand” (KANEKA CORPORATION, priority 2004, published 2008).

For one data set, the system named is rats. Nature of the data set: Toxicity test on coumaperine, oral administration. Format: in vivo. The following applies: 2000 mg/kg of body weight. Here is the method: A toxicity test was conducted on the coumaperine of the present invention.
Coumaperine was orally administered at 2000 mg/kg of body weight to rats. […] Thus, the coumaperine was confirmed to have no or exceedingly low toxicity.

Data set [1] addresses T1, mouse PPARγ ligand-binding site (GAL4 chimeric protein, pM-mPPARγ) (Mus musculus, UniProt P37238).
T1 construct: expressed in transfected cells; host or cells: CV-1 cells (African green monkey kidney)
T1 sequence (P37238 174-475 isoform P37238-2): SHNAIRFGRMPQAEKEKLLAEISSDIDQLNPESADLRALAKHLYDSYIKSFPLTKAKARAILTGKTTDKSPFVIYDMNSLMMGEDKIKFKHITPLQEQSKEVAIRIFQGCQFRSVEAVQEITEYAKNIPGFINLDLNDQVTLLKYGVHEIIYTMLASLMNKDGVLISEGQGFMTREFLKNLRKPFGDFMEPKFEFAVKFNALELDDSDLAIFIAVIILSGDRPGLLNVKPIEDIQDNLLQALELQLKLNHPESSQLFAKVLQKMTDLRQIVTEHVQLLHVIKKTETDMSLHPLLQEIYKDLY
Nature of the data set: PPARγ ligand activity (GAL4-PPARγ chimera luciferase reporter assay in CV-1 cells). Conditions: for PPARγ ligand activity: specific activity relative to untreated control (DMSO = 1.00), CV-1 cells, 24 h. In kind it is cell-based. Here is the method:
CV-1 cells (cultured cells derived from male African green monkey kidney) were seeded at 6×10^3 cells/well into a 96-well culture plate and cultured at 37° C. for 24 hours under 5% CO2 conditions. The medium used was DMEM (Dulbecco's Modified Eagle Medium; GIBCO) containing 10% FBS (fetal bovine serum), 10 ml/L penicillin/streptomycin solution (5000 IU/ml and 5000 μg/ml, respectively; GIBCO), and 37 mg/L ascorbic acid (Wako Pure Chemical Industries, Ltd.). The cells were washed with OPTI-MEM (GIBCO) and then transfected with pM-mPPARγ and 4×UASg-luc by use of Lipofectamine plus (GIBCO). […] The 4×UASg-luc is a reporter plasmid in which four copies of the upstream activating sequence of GAL4 (UASg) are incorporated upstream of a luciferase gene. Approximately 24 hours after transfection, the medium was replaced with a sample-containing medium (n=4), followed by culture for additional 24 hours. The sample dissolved in dimethyl sulfoxide (DMSO) or DMSO used as an untreated control was added at 1/1000 of the volume to the medium. The cells were washed with Ca- and Mg-containing phosphate-buffered saline (PBS+). Then, Luclite (Packard) was added thereto, and the luminescence intensity of luciferase was measured with a TopCount microplate scintillation/luminescence counter (Packard).
pM (plasmid from which PPARγ ligand-binding site gene was removed) was used as a control group instead of the pM-mPPARγ and subjected to measurement in the same way as for the measurement group. The ratio (measurement group/control group) of the average luminescence intensity values (n=4) between the measurement and control groups was calculated for each sample. Specific activity relative to the untreated control was used as the PPARγ ligand activity of the sample.
(In a reporter assay the amount or activity of a reporter protein is the signal.)

On to `O=C(/C=C/C=C/c1ccc(O)cc1)N1CCCCC1` [Coumaperine, N-5-(4-hydroxyphenyl)-2E,4E-pentadienoyl piperidine], for which the death cases entry in the data set with rats is “no death case was observed”. Further, the toxic conditions entry with rats was “toxic conditions were not particularly observed”. Further, in data set [1] (0.5 to 50 μg/ml, Table 1), the “PPARγ ligand activity, concentration dependence (in words)” value is listed as “concentration-dependent PPARγ ligand activity”. Besides, the PPARγ ligand activity turned out to be 1.05 in data set [1] (concentration added 0.5 μg/ml); 1.07 in data set [1] (concentration added 1 μg/ml); 1.24 in data set [1] (concentration added 2 μg/ml); 1.78 in data set [1] (concentration added 5 μg/ml); 2.07 in data set [1] (concentration added 10 μg/ml); 2.53 in data set [1] (concentration added 20 μg/ml). The PPARγ ligand activity in data set [1] (concentration added 30 μg/ml) turned out to be 2.38; in data set [1] (concentration added 50 μg/ml), 2.44.
